Tested on: A2780 cells
Test: In-vitro cell proliferation assay (SRB, 72 hours)
Format: cell-based
Details: Homo sapiens, A2780, 72 h, A2780 cells, 72 hours, SRB; read-out: Cell Proliferation (IC50)

| Compound | IC50 |
| --- | --- |
| O=C(NCC1CC12CCN(C(=O)c1c[nH]cn1)CC2)c1cc2ccncc2o1 (stereo not drawn) [Example 101, N-[[6-(1H-imidazole-4-carbonyl)-6-azaspiro[2.5]octan-2-yl]methyl]furo[2,3-c]pyridine-2-carboxamide] | 2000 nM |
| O=C(NCC1CC12CCN(C(=O)c1ccncn1)CC2)c1cc2ccncc2o1 (stereo not drawn) [Example 102, N-[[6-(pyrimidine-4-carbonyl)-6-azaspiro[2.5]octan-2-yl]methyl]furo[2,3-c]pyridine-2-carboxamide] | 2000 nM |
| O=C(NCC1CC12CCN(C(=O)c1cccnc1)CC2)c1cc2ccncc2o1 (stereo not drawn) [Example 103, N-[[6-(pyridine-3-carbonyl)-6-azaspiro[2.5]octan-2-yl]methyl]furo[2,3-c]pyridine-2-carboxamide] | 2000 nM |
| O=C(NCC1CC12CCN(C(=O)c1cc[nH]n1)CC2)c1cc2ccncc2o1 (stereo not drawn) [Example 104, N-[[6-(1H-pyrazole-3-carbonyl)-6-azaspiro[2.5]octan-2-yl]methyl]furo[2,3-c]pyridine-2-carboxamide] | 2000 nM |
| Cn1cnc(C(=O)N2CCC3(CC2)CC3CNC(=O)c2cc3ccncc3o2)c1 (stereo not drawn) [Example 105, N-[[6-(1-methylimidazole-4-carbonyl)-6-azaspiro[2.5]octan-2-yl]methyl]furo[2,3-c]pyridine-2-carboxamide] | 755 nM |
| Cn1ccc(C(=O)N2CCC3(CC2)CC3CNC(=O)c2cc3ccncc3o2)n1 (stereo not drawn) [Example 109, N-[[6-(1-methylpyrazole-3-carbonyl)-6-azaspiro[2.5]octan-2-yl]methyl]furo[2,3-c]pyridine-2-carboxamide] | 299 nM |
| O=C(NCC1CC12CCN(C(=O)c1cccnn1)CC2)c1cc2ccncc2o1 (stereo not drawn) [Example 110, N-[[6-(pyridazine-3-carbonyl)-6-azaspiro[2.5]octan-2-yl]methyl]furo[2,3-c]pyridine-2-carboxamide] | 2000 nM |
| O=C(NCC1CC12CCN(C(=O)c1cnccn1)CC2)c1cc2ccncc2o1 (stereo not drawn) [Example 112, N-[[6-(pyrazine-2-carbonyl)-6-azaspiro[2.5]octan-2-yl]methyl]furo[2,3-c]pyridine-2-carboxamide] | 2000 nM |
| O=C(NCC1CC12CCN(C(=O)c1ccnnc1)CC2)c1cc2ccncc2o1 (stereo not drawn) [Example 113, N-[[6-(pyridazine-4-carbonyl)-6-azaspiro[2.5]octan-2-yl]methyl]furo[2,3-c]pyridine-2-carboxamide] | 2000 nM |
| Cn1cc(C(=O)N2CCC3(CC2)CC3CNC(=O)c2cc3ccncc3o2)cn1 (stereo not drawn) [Example 114, N-[[6-(1-methylpyrazole-4-carbonyl)-6-azaspiro[2.5]octan-2-yl]methyl]furo[2,3-c]pyridine-2-carboxamide] | 2000 nM |
| Cc1ncccc1C(=O)N1CCC2(CC1)CC2CNC(=O)c1cc2ccncc2o1 (stereo not drawn) [Example 119, N-[[6-(2-methylpyridine-3-carbonyl)-6-azaspiro[2.5]octan-2-yl]methyl]furo[2,3-c]pyridine-2-carboxamide] | 446 nM |
| Cc1ccncc1C(=O)N1CCC2(CC1)CC2CNC(=O)c1cc2ccncc2o1 (stereo not drawn) [Example 120, N-[[6-(4-methylpyridine-3-carbonyl)-6-azaspiro[2.5]octan-2-yl]methyl]furo[2,3-c]pyridine-2-carboxamide] | 92.8 nM |
| Cc1cc(C(=O)N2CCC3(CC2)CC3CNC(=O)c2cc3ccncc3o2)ccn1 (stereo not drawn) [Example 121, N-[[6-(2-methylpyridine-4-carbonyl)-6-azaspiro[2.5]octan-2-yl]methyl]furo[2,3-c]pyridine-2-carboxamide] | 1090 nM |
| Cc1cnc(C(=O)N2CCC3(CC2)CC3CNC(=O)c2cc3ccncc3o2)cn1 (stereo not drawn) [Example 122, N-[[6-(5-methylpyrazine-2-carbonyl)-6-azaspiro[2.5]octan-2-yl]methyl]furo[2,3-c]pyridine-2-carboxamide] | 2000 nM |
| O=C(NCC1CC12CCN(C(=O)c1cc(C3CC3)n[nH]1)CC2)c1cc2ccncc2o1 (stereo not drawn) [Example 123, N-[[6-(3-cyclopropyl-1H-pyrazole-5-carbonyl)-6-azaspiro[2.5]octan-2-yl]methyl]furo[2,3-c]pyridine-2-carboxamide] | 83 nM |
| CCn1cc(C(=O)N2CCC3(CC2)CC3CNC(=O)c2cc3ccncc3o2)cn1 (stereo not drawn) [Example 126, N-[[6-(1-ethylpyrazole-4-carbonyl)-6-azaspiro[2.5]octan-2-yl]methyl]furo[2,3-c]pyridine-2-carboxamide] | 833 nM |
| N#Cc1ccc(C(=O)N2CCC3(CC2)CC3CNC(=O)c2cc3ccncc3o2)cn1 (stereo not drawn) [Example 127, N-[[6-(6-cyanopyridine-3-carbonyl)-6-azaspiro[2.5]octan-2-yl]methyl]furo[2,3-c]pyridine-2-carboxamide] | 2000 nM |
| O=C(NCC1CC12CCN(C(=O)c1ccnc(N3CCOCC3)c1)CC2)c1cc2ccncc2o1 (stereo not drawn) [Example 129, N-[[6-(2-morpholinopyridine-4-carbonyl)-6-azaspiro[2.5]octan-2-yl]methyl]furo[2,3-c]pyridine-2-carboxamide] | 37.3 nM |
| Cn1cc(-c2ccno2)c(C(=O)N2CCC3(CC2)CC3CNC(=O)c2cc3ccncc3o2)n1 (stereo not drawn) [Example 132, N-[[6-(4-isoxazol-5-yl-1-methyl-pyrazole-3-carbonyl)-6-azaspiro[2.5]octan-2-yl]methyl]furo[2,3-c]pyridine-2-carboxamide] | 7.2 nM |
| CC(=O)Nc1cc(C(=O)N2CCC3(CC2)CC3CNC(=O)c2cc3ccncc3o2)ccn1 (stereo not drawn) [Example 133, N-[[6-(2-acetamidopyridine-4-carbonyl)-6-azaspiro[2.5]octan-2-yl]methyl]furo[2,3-c]pyridine-2-carboxamide] | 696 nM |
| O=C(NCC1CC12CCN(C(=O)c1c[nH]nc1-n1cnnn1)CC2)c1cc2ccncc2o1 (stereo not drawn) [Example 134, N-[[6-[3-(tetrazol-1-yl)-1H-pyrazole-4-carbonyl]-6-azaspiro[2.5]octan-2-yl]methyl]furo[2,3-c]pyridine-2-carboxamide] | 514 nM |
| CC(=O)Nc1cccc(C(=O)N2CCC3(CC2)CC3CNC(=O)c2cc3ccncc3o2)n1 (stereo not drawn) [Example 135, N-[[6-(6-acetamidopyridine-2-carbonyl)-6-azaspiro[2.5]octan-2-yl]methyl]furo[2,3-c]pyridine-2-carboxamide] | 36.4 nM |
| Cc1ccn(CC(C)C(=O)N2CCC3(CC2)CC3CNC(=O)c2cc3ccncc3o2)n1 (stereo not drawn) [Example 140, N-[[6-[2-methyl-3-(3-methylpyrazol-1-yl)propanoyl]-6-azaspiro[2.5]octan-2-yl]methyl]furo[2,3-c]pyridine-2-carboxamide] | 2000 nM |

The remaining lines, values ahead:

| IC50 | Compound |
| --- | --- |
| 743 nM | Cc1n[nH]cc1C(=O)N1CCC2(CC1)CC2CNC(=O)c1cc2ccncc2o1 (stereo not drawn) [Example 106, N-[[6-(3-methyl-1H-pyrazole-4-carbonyl)-6-azaspiro[2.5]octan-2-yl]methyl]furo[2,3-c]pyridine-2-carboxamide] |
| 2000 nM | Cn1nccc1C(=O)N1CCC2(CC1)CC2CNC(=O)c1cc2ccncc2o1 (stereo not drawn) [Example 107, N-[[6-(2-methylpyrazole-3-carbonyl)-6-azaspiro[2.5]octan-2-yl]methyl]furo[2,3-c]pyridine-2-carboxamide] |
| 449 nM | Cc1cc(C(=O)N2CCC3(CC2)CC3CNC(=O)c2cc3ccncc3o2)n[nH]1 (stereo not drawn) [Example 108, N-[[6-(5-methyl-1H-pyrazole-3-carbonyl)-6-azaspiro[2.5]octan-2-yl]methyl]furo[2,3-c]pyridine-2-carboxamide] |
| 37.6 nM | Cc1cc(C(=O)N2CCC3(CC2)CC3CNC(=O)c2cc3ccncc3o2)nn1C (stereo not drawn) [Example 115, N-[[6-(1,5-dimethylpyrazole-3-carbonyl)-6-azaspiro[2.5]octan-2-yl]methyl]furo[2,3-c]pyridine-2-carboxamide] |
| 752 nM | Cc1cc(C(=O)N2CCC3(CC2)CC3CNC(=O)c2cc3ccncc3o2)no1 (stereo not drawn) [Example 117, N-[[6-(5-methylisoxazole-3-carbonyl)-6-azaspiro[2.5]octan-2-yl]methyl]furo[2,3-c]pyridine-2-carboxamide] |
| 1070 nM | Cc1nonc1C(=O)N1CCC2(CC1)CC2CNC(=O)c1cc2ccncc2o1 (stereo not drawn) [Example 118, N-[[6-(4-methyl-1,2,5-oxadiazole-3-carbonyl)-6-azaspiro[2.5]octan-2-yl]methyl]furo[2,3-c]pyridine-2-carboxamide] |
| 124 nM | CCn1ncc(C(=O)N2CCC3(CC2)CC3CNC(=O)c2cc3ccncc3o2)c1C (stereo not drawn) [Example 124, N-[[6-(1-ethyl-5-methyl-pyrazole-4-carbonyl)-6-azaspiro[2.5]octan-2-yl]methyl]furo[2,3-c]pyridine-2-carboxamide] |
| 221 nM | Cc1noc(C)c1C(=O)N1CCC2(CC1)CC2CNC(=O)c1cc2ccncc2o1 (stereo not drawn) [Example 125, N-[[6-(3,5-dimethylisoxazole-4-carbonyl)-6-azaspiro[2.5]octan-2-yl]methyl]furo[2,3-c]pyridine-2-carboxamide] |
| 29.2 nM | Cc1nc(C)c(C(=O)N2CCC3(CC2)CC3CNC(=O)c2cc3ccncc3o2)o1 (stereo not drawn) [Example 128, N-[[6-(2,4-dimethyloxazole-5-carbonyl)-6-azaspiro[2.5]octan-2-yl]methyl]furo[2,3-c]pyridine-2-carboxamide] |
| 169 nM | CCc1noc(C)c1C(=O)N1CCC2(CC1)CC2CNC(=O)c1cc2ccncc2o1 (stereo not drawn) [Example 136, N-[[6-(3-ethyl-5-methyl-isoxazole-4-carbonyl)-6-azaspiro[2.5]octan-2-yl)methyl]furo[2,3-c]pyridine-2-carboxamide] |
| 116 nM | CCn1nc(C)cc1C(=O)N1CCC2(CC1)CC2CNC(=O)c1cc2ccncc2o1 (stereo not drawn) [Example 137, N-[[6-(2-ethyl-5-methyl-pyrazole-3-carbonyl)-6-azaspiro[2.5]octan-2-yl]methyl]furo[2,3-c]pyridine-2-carboxamide] |
| 2000 nM | CCn1cc(C(=O)N2CCC3(CC2)CC3CNC(=O)c2cc3ccncc3o2)c(C)n1 (stereo not drawn) [Example 138, N-[[6-(1-ethyl-3-methyl-pyrazole-4-carbonyl)-6-azaspiro[2.5]octan-2-yl)methyl]furo[2,3-c]pyridine-2-carboxamide] |
| 2000 nM | Cc1nocc1C(=O)N1CCC2(CC1)CC2CNC(=O)c1cc2ccncc2o1 (stereo not drawn) [Example 139, N-[[6-(3-methylisoxazole-4-carbonyl)-6-azaspiro[2.5]octan-2-yl]methyl]furo[2,3-c]pyridine-2-carboxamide] |

From US10730889B2, “Amido spirocyclic amide and sulfonamide derivatives” (Forma TM, LLC, priority 2012, dated 2020)
